# Entries after “also recorded” stand apart in the source; their conditions may differ.
# What was measured:
# neutrophil NADPH oxidase = test: Neutrophil respiratory burst (NADPH oxidase activation, chemiluminescence); assay type: cell-based, human; details: human neutrophils, up to 30 μmol/l
# Description: The structure of PT2 is shown in (c) above. In this screening assay, neutrophils were prepared from the blood of healthy volunteers. Freshly collected blood was layered onto a Hypaque-Ficoll medium of density 1.114 and centrifuged at 400 g for 30 mins at room temperature. After centrifugation, the leukocytes resolved into two distinct bands, with neutrophils being present in the second band (Ferrante and Thong, J. Immun. Methods 48:81-85, 1982).
# Activation of the neutrophil NADPH oxidase was measured by lucigenin-dependent chemiluminescence following a 10 min incubation of PT2 (20 μM, final concentration) with 1×10^6 neutrophils from different donors (Power et al, J. Immunol. 159:2952-2959, 1997). Arachidonic acid (20:4, n-6) was used as a positive stimulator of the oxidase
# Neutrophil respiratory burst was determined as previously described (Li et al, J. Clin. Invest. 97:1605-1609, 1996).
# E-selectin = test: LPS-induced E-selectin expression in aortic endothelium; assay type: in vivo, BALB/c mice; details: intravenous, 2 hr before LPS, aortas after 5 hr
# Description: FIG. 14 is a representation showing (A) effect of MP3 on in vivo inflammatory response measured as delayed type hypersensitivity (DTH) to sheep erythrocytes and LPS-induced influx of neutrophils and mononuclear cells in the peritoneal cavity in BALB/c mice. In the DTH experiments mice were injected with sheep erythrocytes subcutaneously, challenged with the antigen in the hind foot pad 6 days later and the amount of foot pad swelling measured 48 hr later. One hour prior to challenge mice were given 10 mg/kg body weight of β-oxa fatty acid in 7% w/v, DMSO as vehicle intraperitoneally. For the peritoneal cavity inflammation, mice were given intravenously 40 mg/kg MP3 intravenously and 6 hr later injected with LPS intraperitoneally. The cellular infiltrates were examined 24 and 72 hr later. The data, expressed as % of control, are presented as mean±SEM of 10 and 5 mice for DTH and peritoneal inflammation, respectively. […] The data, expressed as % of control, are presented as mean±SEM of ten mice per group and is representative of two experimental runs. […]
# The LPS-induced expression of E-selectin in the aortic endothelium of BALB/c mice was determined following injection of 50 μg LPS intraperitoneally and aortas encompassing the ascending part of the aortic arch through to the bifurcation to the common iliac arteries isolated after 5 hr. […]
# IκBα = test: TNF-induced degradation of IκBα in HUVEC (Western blot); assay type: cell-based; details: Homo sapiens, 20 μmol/l, 30 min pre-treatment, TNF 10 min
# Description: FIG. 17 is a representation showing (A) the effect of MP3 (β-oxa 23:4n-6) and DHA on TNF-induced degradation of IκBα in HUVEC. Cells were pre-treated with the fatty acids (20 μmol/l) for 30 min and then stimulated with TNF (125 U/ml) for 10 min. After cell lysis the proteins were analyzed by Western blots using anti-IκBα antibodies. (B) The effects of β-oxa-23:4n-6 on TNF-induced activation of transcriptional factor, NFκB in HUVEC. Cells were pre-treated with β-oxa-23:4n-6 (20 μmol/l) for 30 min and then stimulated with TNF for 2 hr. After cell lysis, nuclear fractions were prepared, nuclear proteins separated by SDS PAGE (12% w/v gel), transferred to nitrocellulose and probed with an anti-NFκB p65 antibody (Santa Cruz). […] (C) The effect of β-oxa 23:4n-6 on TNF-stimulated activation of IKK. Cells were pre-treated with β-oxa 23:4n-6 (20 μmol/l) for 30 min and then stimulated with TNF for 5 min. After cell lysis IKK was immunoprecipitated with anti-IKKα antibody and kinase activity determined. […]
# Proteins (50 μg) were separated by SDS PAGE (12% w/v gel), transferred to nitrocellulose and probed with an anti-NFκB p65 or anti-IκBα antibody (Santa Cruz Biotech, Santa Cruz, Calif.). Immunocomplexes were detected by enhanced chemiluminescence (Hii et al, 1998 supra).
# IKK = test: TNF-stimulated activation of IKK in HUVEC (immunoprecipitation kinase assay); assay type: cell-based, human; details: 20 μmol/l, 30 min, TNF 5 min
# Description: FIG. 17 is a representation showing (A) the effect of MP3 (β-oxa 23:4n-6) and DHA on TNF-induced degradation of IκBα in HUVEC. Cells were pre-treated with the fatty acids (20 μmol/l) for 30 min and then stimulated with TNF (125 U/ml) for 10 min. After cell lysis the proteins were analyzed by Western blots using anti-IκBα antibodies. (B) The effects of β-oxa-23:4n-6 on TNF-induced activation of transcriptional factor, NFκB in HUVEC. Cells were pre-treated with β-oxa-23:4n-6 (20 μmol/l) for 30 min and then stimulated with TNF for 2 hr. After cell lysis, nuclear fractions were prepared, nuclear proteins separated by SDS PAGE (12% w/v gel), transferred to nitrocellulose and probed with an anti-NFκB p65 antibody (Santa Cruz). […] (C) The effect of β-oxa 23:4n-6 on TNF-stimulated activation of IKK. Cells were pre-treated with β-oxa 23:4n-6 (20 μmol/l) for 30 min and then stimulated with TNF for 5 min. After cell lysis IKK was immunoprecipitated with anti-IKKα antibody and kinase activity determined.
# IKK was immunoprecipitated with anti-IKKα (M-280) antibody (sc-7182, Santa Cruz, Biotech) and kinase activity determined using GST-IκBA (residues 5-55) as previously described (Lee et al, 1998 supra). Proteins were fractionated by SDS PAGE and radioactivity associated with GST-IκBα (residues 5-55) determined using an instant imager.
# ERK = test: TNF-stimulated MAP kinase activity in HUVEC; assay type: cell-based, human; details: HUVEC pre-treated with the fatty acid
# Description: (§1) ERK and p38 were precipitated with anti-ERK2 (C-14, sc-154) and anti-p38 (C-20, sc-535) antibody, respectively (Santa Cruz Biotech) and the activity determined using myelin basic protein as a substrate (Hii et al, 1995 supra, Hii et al, 1998 supra). JNK activity was determined in a solid phase assay using GST c-Jun (residues-1-79) as a substrate (Hii et al, 1995 supra, Hii et al, 1998 supra).
# JNK = test: TNF-stimulated MAP kinase activity in HUVEC; assay type: cell-based, human; details: HUVEC pre-treated with the fatty acid
# Description: as §1
# p38 = test: TNF-stimulated MAP kinase activity in HUVEC; assay type: cell-based, human; details: HUVEC pre-treated with the fatty acid
# Description: as §1
structure (smiles),measurement,setting,value
"CCCCC/C=C\C/C=C\C/C=C\C/C=C\CCCCOCC(=O)O [MP3, β-oxa-23:4n-6]",Stimulation of the neutrophil respiratory burst (chemiluminescence response),neutrophil NADPH oxidase,relatively poor at stimulating this response; also recorded: failed to cause any significant respiratory burst
same,LPS-induced E-selectin expression in aortic endothelium,E-selectin,effective in vivo at suppressing LPS-stimulated up-regulation of E-selectin expression
same,LPS-induced E-selectin expression in aortic endothelium,E-selectin; listed as β-oxa-23:4n-6,significant reduction in LPS-induced E-selectin expression
same,inhibition at 20 µM,IκBα,> 92%
same,TNF-stimulated activation of IKK / IκB kinase-NFκB signalling pathway,IKK,inhibits the ability of TNF to activate
same,TNF-stimulated activation of IKK / IκB kinase-NFκB signalling pathway,IKK; listed as β-oxa 23:4n-6,significantly inhibited
same,Effect on ability of TNF to stimulate ERK,ERK,did not affect
same,Effect on ability of TNF to stimulate JNK,JNK,did not affect
same,Effect on ability of TNF to stimulate p38,p38,did not affect
